Assay results as given in paper PMC8946662, “Topical Bimiralisib Shows Meaningful Cutaneous Drug Levels in Healthy Volunteers and Mycosis Fungoides Patients but No Clinical Activity in a First-in-Human, Randomized Controlled Trial” (Cancers, 2022).
“And” between values parts separate entries of the source, which are not always exact repeats. Equal entries are not always repeated. “Also recorded” adds a separate entry of the source. Where two headings read alike, the source gives them in different places.

Columns and labels:
[1] = Cutaneous pharmacokinetics in skin punch biopsies of healthy volunteers (MALDI-MSI); type: in vivo, human; conditions: for Kp at 6 h / concentration at 6 h: human, topical; for Kp at 6 h: skin / plasma, 2 mg/cm^2, HVs; for concentration at 6 h: 2 mg/cm^2, HVs, day 21, 6 h after last application
Experimental: (§1) To investigate cutaneous pharmacokinetics in both HVs and patients, 3 mm skin punch biopsies of the treatment area were taken 6 h after the last topical application (day 21 in part A and day 42/84 in part B, respectively) and snap-frozen within 5 min after collection. Skin punch biopsies were shipped to ImaBiotech (MS Imaging Department, Lille, France) and analyzed using matrix-assisted laser desorption/ionization mass spectrometry imaging (MALDI-MSI) to spatially visualize pharmacokinetics of bimiralisib throughout the biopsy (Figure 1).
(§2) Figure 1 Method of obtaining cutaneous pharmacokinetics of bimiralisib in HVs and early-stage MF patients. (A) Bimiralisib gel 2% is applied topically, in part A at the back of six HVs and in part B at 1–3 target MF lesions. (B) A full-thickness skin punch biopsy was taken on day 21 and day 42/84, respectively, for HVs and MF patients. Skin punch biopsy was snap-frozen within 5 min, processed and cryosectioned. A single section was used for H&E staining. (C) MALDI matrix spraying. (D) Prepared samples were ionized by a laser beam. (E) Seven tesla Matrix-assisted laser desorption/ionization Fourier transform ion cyclotron resonance mass spectrometry imaging (7T-MALDI-FTICR MSI) acquisition. (F) Acquired data are analyzed and MALDI images are acquired.
(§3) Pharmacokinetics in tissue were analyzed with a validated 7T-MALDI-FTICR method with a lower limit of quantification of 62 ng/g of tissue and an assay sensitivity of […] (lower limit of detection). Pharmacokinetic data below the lower limit of quantification but above the limit of detection were interpolated and used in the analysis.

[2] = Systemic pharmacokinetics in plasma of early-stage MF patients (UPLC-MS/MS), part B; type: in vivo, human
Experimental: (§4) The healthy volunteers in part A were administered 2 mg/cm^2 topical bimiralisib 2% on 400 cm^2 and 2 mg/cm^2 vehicle gel (serving as placebo with identical appearance) on 100 cm^2 skin of the back once daily by the study physician for 21 consecutive days, all administered at the study site. The 19 patients in part B were randomized 1:1, with 9 assigned to active and 10 to placebo. Randomization was predefined and performed in SAS version 9.4 (SAS Institute, Cary, NC, USA) by an independent statistician, using the SAS code for the parallel, two-treatment randomization with block size 2. The investigators, study personnel, sponsor and patients were blinded for allocated treatment throughout the study. Patients randomized in the treatment group applied topical bimiralisib 2%, once daily for 42 consecutive days, whereas the control group applied the vehicle gel. During the treatment period, the patients applied the bimiralisib or vehicle themselves at home after training and instructions on day 1. After 42 days, patients with ≥15% lesion improvement by CAILS could enter a blinded extension period in which treatment was continued until day 84.
(§5) At baseline of part B, one to three MF lesions (target lesions) were chosen to define a 150–200 cm^2 treatment area. Other MF lesions were left untreated in this study. Emollients, i.e., unguentum leniens, were distributed to patients and allowed for daily use on the skin, barring the target lesion(s). In part B, patient visits to the study site were scheduled for days −42 (run-in period), 1, 14, 28, 42 (end of treatment for all patients with <15% lesion improvement), 56 and 70 (end of study). Patients continuing with the extended treatment period had three extra visits on days 84 (end of treatment), 98 and 112 (end of study). Study details are provided in the assessment schedule (Table 1, Part B).
(§6) Blood samples for determination of bimiralisib levels in plasma of HVs were collected predose and at 1, 3, 6 and 24 h on days 7, 14 and 21 of application in part A. In part B, PK blood samples from patients were collected predose and at 1, 2, 3 and 6 h after dosing on day 42 (or on day 84 in case of participation in the extension study) of topical application.
(§7) Pharmacokinetics in plasma were analyzed with a validated ultra-performance liquid chromatography–tandem mass spectrometer method (UPLC-MS/MS) with a lower limit of quantification of 1.00 ng/mL of plasma.
(§8) Pharmacokinetic data were visualized for each subject and part separately. Due to differences in surface areas and applied doses between part A and part B, pharmacokinetic data were normalized to allow for the exploration of differences in exposure between HVs and patients after log transformation. For exploratory purposes, the applied dose was stratified by part and by number of lesions. The average concentration (Cavg) per subject was calculated based on all pharmacokinetic data of an individual combined.

MF patients = assay: Safety and tolerability in MF patients, part B; type: in vivo, human
Experimental: as §4
(§9) The secondary endpoint was to characterize local tolerability, safety and systemic exposure of bimiralisib by application site assessment using the Local Irritation Grading Scale (LIGS), adverse events (AEs), safety measurements and systemic pharmacokinetics.
(§10) The LIGS, a composite score of erythema, edema and desquamation, was used to assess the application site for safety or tolerability issues. In addition, safety and tolerability were evaluated by monitoring of AEs, physical examinations, vital signs, 12-lead ECGs and laboratory tests.

[3] = system: early-stage MF target lesions; assay: Clinical efficacy and pharmacodynamics in early-stage MF patients (CAILS, LSCI, OCT, multispectral imaging); type: in vivo, human
Experimental: as §4, §5
The primary endpoint was to evaluate the efficacy of bimiralisib versus placebo after 6 weeks of treatment by the change from baseline on Composite Assessment of Index Lesion Severity (CAILS). Clinical efficacy was assessed by the CAILS per target lesion, which is a score derived from individual scores for erythema, desquamation, plaque elevation, hypo- or hyperpigmentation and lesion size. Change from baseline of the combined CAILS score for all target lesions was used to calculate the objective response rate (ORR), i.e., the number of patients with complete response (CR: 100% clearance of target lesions from baseline) and partial response (PR: 50%–99% clearance) divided by the total number of patients in the respective treatment arm. […] Target lesions were extensively characterized by the assessment of skin perfusion with laser speckle contrast imaging (LSCI, PeriCam PSI NR system, Perimed, Sweden); skin morphology (blood flow) by optical coherence tomography (OCT, VivoSight, Michelson Diagnostics, UK); and erythema, roughness and edema by a multispectral camera (Antera 3D, Miravez, Ireland). The Scarlet Red app (ScarletRed Vision, Vienna, Austria) was used by patients at home for daily photo documentation and erythema quantification of a single target lesion.
All safety and statistical calculations were conducted with SAS version 9.4 for Windows (SAS Institute, Cary, NC, USA). PK parameter calculations were conducted with R version 4.0.3 for Windows (R Foundation for Statistical Computing, Vienna, Austria). All efficacy endpoints were analyzed for both the per protocol set and full analysis set, using a mixed model analysis of covariance (ANCOVA) with treatment, time and interaction of treatment by time as fixed factors; baseline as covariate; and subject as random factor.

healthy volunteers = assay: Safety and tolerability in healthy volunteers, part A; type: in vivo, human
Experimental: as §4, §9, §10

[4] = Systemic pharmacokinetics in plasma of healthy volunteers (UPLC-MS/MS), part A; type: in vivo, human; conditions: for AUC(0-t): topical, 2 mg/cm^2, HVs
Experimental: as §4, §6, §7, §8

[5] = Cutaneous pharmacokinetics in skin punch biopsies of MF patients (MALDI-MSI); type: in vivo, human; conditions: for concentration at 6 h: human, skin punch biopsy, topical, 2 % gel, MF patients
Experimental: as §1, §2, §3

[6] = parameters: method as in earlier work; conditions: plasma; cited from earlier work
CTCL patients = system: CTCL patients; parameters: method as in PMID 29233821; conditions: oral, 19 CTCL patients; cited from earlier work
CTCL cell lines = conditions: cited from earlier work

Nc1cc(C(F)(F)F)c(-c2nc(N3CCOCC3)nc(N3CCOCC3)n2)cn1 [bimiralisib, 5-(4,6-Dimorpholino-1,3,5-triazin-2-yl)-4-(trifluoromethyl)pyridin-2-amine]
Kp at 6 h ([1]; read-out: mean ratio skin/plasma concentration): 3050
Kp at 6 h ([1]; read-out: ratio skin/plasma concentration, range): 1210 to 7360
concentration at 6 h ([1]; skin punch biopsy (epidermis), epidermis, read-out: mean concentration in skin punch biopsies): 2540 ng/g
concentration at 6 h ([1]; skin punch biopsy, read-out: concentration in skin punch biopsies, range): 1030 to 5700 ng/g
exposure in papillary and reticular dermis, lower than in epidermis ([1]; part A skin punch biopsies): approximately 10 fold
local exposure in epidermis relative to IC90 of pAKT and pS6 ([1]; part A skin punch biopsies, IC90 from ref 31, 32): within range of the IC90 of pAKT and pS6
highest plasma concentration reached ([2]; MF patients): 18.70 ng/mL
mean Cavg in plasma ([2]; MF patients, gel 2% once daily, day 42 or 84): 4.49 ng/mL
plasma concentrations relative to NOAEL ([2]; MF patients, NOAEL 96.6 ng/mL): substantially below
mean ratio of normalized plasma concentration, MF patients vs HVs ([2]; normalized around 200 cm^2/(2 mg/cm^2)): 2.44 fold
increase in normalized plasma concentration, MF patients compared to HVs ([2]; normalized for applied dose and area): 144%
vital signs, laboratory analyses, ECG, urinalysis (MF patients; both parts): did not result in any clinically significant changes
overall tolerability (MF patients; local reactions and systemic adverse events, HVs and MF patients): safe and well tolerated
myalgia, patients (MF patients; part B, bimiralisib group, 2/9): 22.2%
mild dryness at the application site, patients (MF patients; part B, bimiralisib group, day 14): 1/9
well-defined erythema at the application site, patients (MF patients; part B, bimiralisib group, day 28): one
patients with at least one AE (MF patients; part B, bimiralisib group, six of nine patients): 66.7%
efficacy by CAILS vs placebo, in words ([3]; 42 days once-daily treatment, p = 0.74 over time, p = 0.98 on day 42): No statistical significant difference; also recorded: no statistically significant clinical response
objective response rates between treatment groups ([3]; Table S7): No substantial differences
subjects with ≥15% lesional response by CAILS ([3]; bimiralisib group (n = 9), day 42): Three
clinical response classification ([3]; bimiralisib group, by CAILS): stable disease
difference in change from baseline in CAILS, bimiralisib vs placebo ([3]; day 42, once daily, 95% CI −3.3–3.4, p = 0.9820): 0.0
skin perfusion (LSCI), blood flow (OCT), erythema and roughness by 3D multispectral imaging ([3]; target lesions): no improvement
acne at the application site, subjects (healthy volunteers; bimiralisib area, n = 3): 50%
LIGS scores, bimiralisib vs placebo areas (healthy volunteers; full course): comparable
subjects with one or more adverse events (healthy volunteers; n = 6, each subject received both bimiralisib and placebo areas): 100%
dryness at the application site, subjects (healthy volunteers; reported for both placebo- and bimiralisib-treated areas): 83.3%
mean Cavg in plasma ([4]; HVs, 2 mg/cm^2 gel 2% on 400 cm^2 once daily for 21 days): 0.96 ng/mL and 0.956 ng/mL
time at which steady state is reached ([4]; HVs, topical gel once daily): < 7 days
plasma concentrations relative to human NOAEL ([4]; HVs, NOAEL 96.6 ng/mL): detectable but low and substantially below
Cmax ([4]; human, plasma, 2 mg/cm^2, HVs, topical once daily, read-out: highest Cmax in plasma): 2.74 ng/mL
AUC(0-t) ([4]; human, plasma, after 14 days of once-daily gel, read-out: highest AUC(0-24h)): 40 ng·h/mL
AUC(0-t) ([4]; human, plasma, day 7, read-out: mean AUC(0-24 h)): 21.3 ng·h/mL
AUC(0-t) ([4]; human, plasma, day 14, read-out: mean AUC(0-24 h)): 22.2 ng·h/mL
exposure in papillary dermis, lower than in epidermis ([5]; Figure 5, single HV and single MF patient, MALDI-MSI): approximately 10 fold
concentration at 6 h ([5]; day 42/84, 6 h after last application, read-out: mean cutaneous concentration in skin punch biopsies): 5300 ng/g
concentration at 6 h ([5]; day 42/84, read-out: cutaneous concentration in skin punch biopsies, range): 300 to 30200 ng/g
human no observed adverse effect level (NOAEL Cmax) [6]: 96.6 ng/mL

C[C@H](Nc1ncnc2nc[nH]c12)c1cc2cccc(Cl)c2c(=O)n1-c1ccccc1 [duvelisib]
complete responders by mSWAT (CTCL patients): 3
partial responders by mSWAT (CTCL patients): 6

CO[C@H]1C[C@@H]2CC[C@@H](C)[C@@](O)(O2)C(=O)C(=O)N2CCCC[C@H]2C(=O)O[C@H]([C@H](C)C[C@@H]2CC[C@@H](OCCO)[C@H](OC)C2)CC(=O)[C@H](C)/C=C(\C)[C@@H](O)[C@@H](OC)C(=O)[C@H](C)C[C@H](C)/C=C/C=C/C=C/1C [everolimus]
antitumor activity in vitro (CTCL cell lines): has antitumor activity in vitro
